Data on four molecules can be found in ChEMBL document CHEMBL1649358, “Induced production of bromomethylchlamydosporols A and B from the marine-derived fungus Fusarium tricinctum” (2010).

Holding throughout (format): functional
Assay [1] concerns Staphylococcus aureus. The assay is described as follows: Antibacterial activity against Staphylococcus aureus ATCC 29213 after 18 hrs by broth dilution method. Conditions: ATCC 29213, 18 h. For orientation: Broth dilution looks for growth in wells or tubes with falling amounts of substance.
Assay [2] concerns Staphylococcus aureus. The assay is described as follows: Antibacterial activity against multidrug-resistant Staphylococcus aureus CCARM 3089 after 18 hrs by broth dilution method. Conditions: CCARM 3089, 18 h.
The test system of assay [3] is Staphylococcus aureus. The assay can be described thus: Antibacterial activity against methicillin-resistant Staphylococcus aureus CCARM 3167 after 18 hrs by broth dilution method. Conditions: CCARM 3167, 18 h.

Structures are written as SMILES. ≈ marks a conversion by molar mass, not a printed value.

The MIC is the least concentration at which growth counts as inhibited. Higher therefore signals a less susceptible organism.

For `COc1cc(=O)oc2c1COC(C)(O)[C@H]2C` (mixture of isomers) [CHLAMYDOSPOROL], the MIC is 31.5 µg/mL against Staphylococcus aureus [1], 62.5 µg/mL in the assay with Staphylococcus aureus [2] and 31.5 µg/mL in the assay with Staphylococcus aureus [3].
Consider `COc1cc(=O)oc2c1CO[C@@](C)(OC)[C@@]2(C)Br` [BROMOMETHYLCHLAMYDOSPOROL A], for which the MIC in the assay on Staphylococcus aureus [1], with Staphylococcus aureus [2] and in the assay on Staphylococcus aureus [3] was 15.6 µg/mL (≈ 48.9 µM) in each case.
For `COc1c2c(oc(=O)c1Br)C(C)(Br)[C@](C)(OC)OC2` (some centres not stated) [BROMOMETHYLCHLAMYDOSPOROL B], the MIC with Staphylococcus aureus [1], with Staphylococcus aureus [2] and with Staphylococcus aureus [3] was 15.6 µg/mL (≈ 39.2 µM) throughout.
On to `C/C=C(\C)[C@H]1[C@@H](/C=C/C=C(\C)[C@@H](O)[C@@H](C)CO)[C@@H]2C[C@@H]3O[C@]3(C)C[C@H]2[C@@H]2O[C@@]21C` [FUSARIELIN A], for which the MIC came out at 31.5 µg/mL (≈ 78.2 µM) against Staphylococcus aureus [1], 62.5 µg/mL (≈ 155 µM) in the assay with Staphylococcus aureus [2] and 31.5 µg/mL (≈ 78.2 µM) against Staphylococcus aureus [3].
